Where only a bound is given, the exact number is not on record here.

Among the data in ChEMBL document CHEMBL5550189, “Discovery of GS-7682, a Novel 4'-Cyano-Modified C-Nucleoside Prodrug with Broad Activity against Pneumo- and Picornaviruses and Efficacy in RSV-Infected African Green Monkeys” (J Med Chem, 2024) are EC50, Cmax and selectivity ratio values, retold here.

In one data set the test system is enterovirus D68. Put plainly: Anti-viral activity against EV-D68 (18952) infected in human RD cells by MTS assay. Format: functional, organism-based. Conditions: Enterovirus D, 18952, RD. Background: Tetrazolium dyes change colour on reduction, which living cells bring about.
Data set [1] is described as follows: Drug metabolism in Cynomolgous monkey assessed as Cmax of (2R,3S,4R,5S)-5-(4-aminopyrrolo[2,1-f][1,2,4]triazin-7-yl)-3,4-dihydroxy-2-(hydroxymethyl)tetrahydrofuran-2-carbonitrile metabolite at 5 mg/kg, iv measured after 30 mins by LC-MS/MS analysis. The settings on record: cynomolgus monkey, in vivo, 0.5 h. Format: ADME, organism-based, Macaca fascicularis.
In the next data set the test system is Influenza A virus. In words: Anti-viral activity against Influenza A (H1N1) infected in MDCK cells by MTS assay. The data set is classed as functional, organism-based. Conditions: H.
The nature of data set [2]: Cmax in Cynomolgous monkey at 5 mg/kg, iv measured after 30 mins by LC-MS/MS analysis. Format: ADME, organism-based, Macaca fascicularis. Conditions: cynomolgus monkey, in vivo.
Data set [3] in a line: Selectivity index, ratio of CC50 for human HEp-2 cells to EC50 for RSV A2 infected in human HEp-2 cells. Conditions: read-out: Ratio CC50/EC50. The data set is classed as toxicity, cell-based.

A word on the EC50: it is the concentration that produces a half-maximal response. In general, Cmax refers to the peak of the concentration-time curve. For `COC(=O)[C@H](C)N[P@](=O)(OC[C@@]1(C#N)O[C@@H](c2ccc3c(N)ncnn23)[C@H](OC(=O)C(C)C)[C@@H]1OC(=O)C(C)C)Oc1ccccc1`, the EC50 was 90 nM in the data set with enterovirus D68 and > 2000 nM with Influenza A virus. Besides, the Cmax amounted to 961 nM in data set [1] and 1990 nM in data set [2]. The selectivity ratio in data set [3] was 500.
